Data on twelve compounds can be found in patent US9475809B2, “Substituted oxopyridine derivatives and use thereof as factor xia/plasma” (BAYER PHARMA AKTIENGESELLSCHAFT, priority 2013, dated 2016).

Structures are written as SMILES. pIC50: −log10 of the molar value.

human factor XIa, sequence (P03951 388-625): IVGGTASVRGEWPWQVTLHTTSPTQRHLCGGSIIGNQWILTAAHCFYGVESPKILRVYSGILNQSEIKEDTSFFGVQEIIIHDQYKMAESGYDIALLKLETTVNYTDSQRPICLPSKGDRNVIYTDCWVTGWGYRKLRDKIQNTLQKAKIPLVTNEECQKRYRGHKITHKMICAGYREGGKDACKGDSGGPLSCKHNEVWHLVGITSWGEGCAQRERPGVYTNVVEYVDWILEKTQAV
human factor XIa, sequence (P03951 19-387 partner): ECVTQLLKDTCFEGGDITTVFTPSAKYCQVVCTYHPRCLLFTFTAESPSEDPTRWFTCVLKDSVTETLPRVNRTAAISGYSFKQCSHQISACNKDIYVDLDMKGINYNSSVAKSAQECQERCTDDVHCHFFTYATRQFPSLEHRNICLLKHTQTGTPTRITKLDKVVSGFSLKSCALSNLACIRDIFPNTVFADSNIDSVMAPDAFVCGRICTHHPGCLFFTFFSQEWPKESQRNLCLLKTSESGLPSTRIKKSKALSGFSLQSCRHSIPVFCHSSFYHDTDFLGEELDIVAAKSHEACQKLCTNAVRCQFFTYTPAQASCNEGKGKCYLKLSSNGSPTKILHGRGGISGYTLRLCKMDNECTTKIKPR

The target in this assay is human factor XIa (Homo sapiens (Human), UniProt P03951). The assay is described as follows: Measurement of FXIa inhibition (fluorogenic peptide substrate). Type of assay: biochemical. As to conditions: factor XIa from Kordia 0.45 nM; substrate Boc-Glu(OBzl)-Ala-Arg-AMC; 30 min at 22° C. Here is the method:
a.1) Measurement of FXIa Inhibition
The factor XIa inhibition of the inventive substances is determined using a biochemical test system which utilizes the reaction of a peptidic factor XIa substrate to determine the enzymatic activity of human factor XIa. Here, factor XIa cleaves from the peptic factor XIa substrate the C-terminal aminomethylcoumarin (AMC), the fluorescence of which is measured. The determinations are carried out in microtitre plates.
In each case 1 μl of the diluted substance solutions is placed into the wells of white microtitre plates from Greiner (384 wells). […] After 15 min of incubation, the enzyme reaction is started by addition of 20 μl of the factor XIa substrate Boc-Glu(OBzl)-Ala-Arg-AMC dissolved in assay buffer (10 μM in assay buffer) from Bachem, the mixture is incubated at room temperature (22° C.) for 30 min and fluorescence is then measured (excitation: 360 nm, emission: 460 nm). The measured emissions of the test batches with test substance are compared to those of control batches without test substance (only dimethyl sulphoxide instead of test substance in dimethyl sulphoxide), and IC50 values are calculated from the concentration/activity relationships.
For orientation: pIC50 means the IC50 on a negative log10 scale, so that one unit is a factor of ten. Lower therefore signals a high IC50. In turn, `O=C(Cn1c2c(c(-c3cc(Cl)ccc3Cl)cc1=O)C(=O)CC2)Nc1ccc(-c2nnn[nH]2)cc1` [Example 3, 2-[4-(2,5-Dichlorophenyl)-2,5-dioxo-2,5,6,7-tetrahydro-1H-cyclopenta[b]pyridin-1-yl]-N-[4-(1H-tetrazol-5-yl)phenyl]acetamide] gave a pIC50 of 6.64.

In the case of `O=C(Cn1c2c(c(-c3cc(Cl)ccc3Br)cc1=O)C(=O)CC2)Nc1ccc(-c2noc(=O)[nH]2)cc1` [Example 10, 2-[4-(2-Bromo-5-chlorophenyl)-2,5-dioxo-2,5,6,7-tetrahydro-1H-cyclopenta[b]pyridin-1-yl]-N-[4-(5-oxo-4,5-dihydro-1,2,4-oxadiazol-3-yl)phenyl]acetamide], the pIC50 is 6.72.

On to `O=C(Cn1c2c(c(-c3cc(Cl)ccc3C(F)(F)F)cc1=O)C(=O)CC2)Nc1ccc(-c2cc(=O)[nH][nH]2)cc1` [Example 11, 2-{4-[5-Chloro-2-(trifluoromethyl)phenyl]-2,5-dioxo-2,5,6,7-tetrahydro-1H-cyclopenta[b]pyridin-1-yl}-N -[4-(5-oxo-2,5-dihydro-1H-pyrazol-3-yl)phenyl]acetamide], for which the pIC50 is 6.12.

Take `N#Cc1ccc(Cl)cc1-c1cc(=O)n(CC(=O)Nc2ccc(-c3noc(=O)[nH]3)cc2)c2c1C(=O)CC2` [Example 13, 2-[4-(5-Chloro-2-cyanophenyl)-2,5-dioxo-2,5,6,7-tetrahydro-1H-cyclopenta[b]pyridin-1-yl]-N-[4-(5-oxo-4,5-dihydro-1,2,4-oxadiazol-3-yl)phenyl]acetamide]: the pIC50 is 7.47.

The compound `N#Cc1ccc(Cl)cc1-c1cc(=O)n(CC(=O)Nc2ccc(-c3noc(=O)[nH]3)cc2)c2c1C(=O)CCC2` [Example 16, 2-[4-(5-Chloro-2-cyanophenyl)-2,5-dioxo-5,6,7,8-tetrahydroquinolin-1(2H)-yl]-N-[4-(5-oxo-4,5-dihydro-1,2,4-oxadiazol-3-yl)phenyl]acetamide] gave a negative-log IC50 (pIC50) of 7.11.

Consider `O=C(Cn1c2c(c(-c3cc(Cl)ccc3Cl)cc1=O)C(=O)CC2)Nc1ccc(C(=O)O)cc1` [Example 4, 4-({[4-(2,5-Dichlorophenyl)-2,5-dioxo-2,5,6,7-tetrahydro-1H-cyclopenta[b]pyridin-1-yl]acetyl}amino)benzoic acid], for which the pIC50 is 6.38.

The compound `O=C(Cn1c2c(c(-c3cc(Cl)ccc3Cl)cc1=O)C(=O)CC2)Nc1ccc(-c2cc(=O)[nH][nH]2)cc1` [Example 7, 2-[4-(2,5-Dichlorophenyl)-2,5-dioxo-2,5,6,7-tetrahydro-1H-cyclopenta[b]pyridin-1-yl]-N-[4-(5-oxo-2,5-dihydro-1H-pyrazol-3-yl)phenyl]acetamide] showed a negative-log IC50 (pIC50) of 6.89.

With `O=C(Cn1c2c(c(-c3cc(Cl)ccc3Cl)cc1=O)C(=O)CC2)Nc1ccc(-c2nc(C(F)(F)F)n[nH]2)cc1` [Example 6, 2-[4-(2,5-Dichlorophenyl)-2,5-dioxo-2,5,6,7-tetrahydro-1H-cyclopenta[b]pyridin-1-yl]-N-{4-[3-(trifluoromethyl)-1H-1,2,4-triazol-5-yl]phenyl}acetamide], the negative logarithm of the IC50 (pIC50) is 6.26.

For the compound `O=C(Cn1c2c(c(-c3cc(Cl)ccc3Br)cc1=O)C(=O)CC2)Nc1ccc(-c2nnn[nH]2)cc1` [Example 9, 2-[4-(2-Bromo-5-chlorophenyl)-2,5-dioxo-2,5,6,7-tetrahydro-1H-cyclopenta[b]pyridin-1-yl]-N-[4-(1H-tetrazol-5-yl)phenyl]acetamide], the negative-log IC50 (pIC50) is 6.77.

Turning to `CN1Cc2c(c(-c3cc(Cl)ccc3Cl)cc(=O)n2CC(=O)Nc2ccc(-c3nnn[nH]3)cc2)C1=O` [Example 2, 2-[4-(2,5-Dichlorophenyl)-6-methyl-2,5-dioxo-2,5,6,7-tetrahydro-1H-pyrrolo[3,4-b]pyridin-1-yl]-N-[4-(1H-tetrazol-5-yl)phenyl]acetamide], the pIC50 is 6.47.

In the case of `O=C(Cn1c2c(c(-c3cc(Cl)ccc3Cl)cc1=O)C(=O)CC2)Nc1ccc(-c2cnc[nH]2)cc1` [Example 8, 2-[4-(2,5-Dichlorophenyl)-2,5-dioxo-2,5,6,7-tetrahydro-1H-cyclopenta[b]pyridin-1-yl]-N-[4-(1H-imidazol-5-yl)phenyl]acetamide], the pIC50 was 6.33.

`N#Cc1ccc(Cl)cc1-c1cc(=O)n(CC(=O)Nc2ccc(-c3cc(=O)[nH][nH]3)cc2)c2c1C(=O)CC2` [Example 14, 2-[4-(5-Chloro-2-cyanophenyl)-2,5-dioxo-2,5,6,7-tetrahydro-1H-cyclopenta[b]pyridin-1-yl]-N-[4-(5-oxo-2,5-dihydro-1H-pyrazol-3-yl)phenyl]acetamide] had a pIC50 of 6.85.
